{
  "source": "paper PMC8904451",
  "about": "“Novel chalcone-derived pyrazoles as potential therapeutic agents for the treatment of non-small cell lung cancer” (Scientific Reports, 2022)",
  "assay_type_in_all_cases": "cell-based, human",
  "key": {"A-549 cells [1]": {"test_system": "A-549 cells", "test": "Wound healing migration assay", "description": "To further confirm the antimigratory potential of PCH-1, the wound healing assay was performed on A-549 cells. […] This effect was retained during the entire exposure time, with the highest difference during 18–24 h compared to that in the control group. Finally, the anti-migratory properties of PCH-1 were studied by co-treatment A-549 cells with TGF-β1.\nTo analyze cell motility, A-549 cells were seeded onto the Ibidi-silicone insert on a cover glass-bottom 24-well plate for live cell imaging and incubated for 24 h. Subsequently, the inserts were dislodged, the cellular debris was removed by washing with RPMI, and the cells were incubated with different concentrations of PCH-1, and/or 2.5 ng/ml TGF-β1 (Sigma-Aldrich) in an imaging chamber (cellVivo incubation system, Olympus) at 37 °C with 5% CO2. Images were captured every 10 min for 20 or 42 h under × 10 magnification using a fluorescence microscope (IX83 Inverted Microscope, Olympus) connected to an XC50 digital color camera (Olympus). The percentage of wound closure was quantified with ImageJ software."}, "A-549 cells [2]": {"test_system": "A-549 cells", "test": "Intracellular ROS measurement (H2DCFDA, flow cytometry)", "text": "The generation of intracellular reactive oxygen species (ROS) causes an imbalance of cellular redox homeostasis, followed by damage of cellular components and cell death. Therefore, compounds with the ability to produce high levels of ROS and/or inhibit antioxidant processes are often used in anticancer therapies. In the present study, the effect of PCH-1 on ROS generation in A-549 cells was investigated by flow cytometry. As an indicator of ROS generation, the fluorescent probe 2ʹ,7ʹ-dichlorodihydrofluorescein diacetate (H2DCFDA) was used, which undergoes oxidation by ROS to form a highly fluorescent compound 2ʹ,7ʹ-dichlorofluorescein (DCF). As shown in Supplementary Fig. S6 in Supplementary Information, compound PCH-1 induced a massive amount of ROS in A-549 cells in a time-dependent manner. […] Moreover, the induction of ROS was equally high for PCH-1 and the reference compound H2O2 in all the tested time points.\nFor determination the ROS generation, cells were treated with IC90 of PCH-1, H2O2, or 1% DMSO for 3, 6, and 24 h. Next, a 1 µM CM-H2DCFDA (#C6827; Thermo-Fisher) probe was added to the cells in each plate 30 min before the end of the drug treatment. After incubation cells were collected by trypsinization, stained with 7-Aminoactinomycin D (7-AAD, Sigma-Aldrich), and measured. The analysis was performed with Guava EasyCyte 8 cell sorter (Merck Millipore) and FlowJo software v10. Each experiment was repeated independently three times."}, "A-549 cells [3]": {"test_system": "A-549 cells", "test": "MTT cell viability assay, A-549", "settings": "for IC50: Homo sapiens, A549", "description": "All the synthesized chalcone-derived pyrazoles were evaluated for their antiproliferative activity against three human non-small cell lung cancer cell lines: A-549, H226, and H460, and a nonmalignant human embryonic kidney cell line HEK293. Cisplatin and 5-fluorouracil (5-FU) were used as a reference. […] The results of the studies are expressed as the IC50 concentration that inhibits 50% growth of cells. […] Following treatment with PCH-1, the viability of all the tested cancer cell lines decreased in a concentration-dependent manner.\nThe cell viability assay was performed for A-549, H226, H460, and HEK293 cells after treatment with the test compounds by using the 3-(4,5-dimethylthiazol-2-yl)-2,5-diphenyltetrazolium bromide (MTT, Sigma-Aldrich) assay. Briefly, cells were seeded onto 96-well culture plates for attachment. After 24 h, triplicate wells were treated with DMSO (1%) and the agents. […] After 2–4 h of incubation, the medium was removed, and the formazan crystals were dissolved in 100 μl of DMSO. The absorption was measured at 450 nm with an ASYS UVM340 microplate reader (Biochrom Ltd.). The 50% inhibitory concentration (IC50) was defined as the concentration that reduced the absorbance of the DMSO-treated wells by 50% of the vehicle. The IC50 values were generated from GraphPad Prism 9 software by plotting the survival curve as a function of dose from 3 independent experiments."}, "[4]": {"test_system": "A-549, H226, and H460 cells", "test": "Cell cycle distribution by flow cytometry, unsynchronized cells", "settings": "IC90, 24 h, vs control", "description": "Promising antiproliferative properties of PCH-1 led us to further investigate the effect of this compound on cell cycle distribution. Therefore, cell cycle progression was analyzed by quantifying DNA content using flow cytometry. […] To thoroughly analyze the course of the cycle, A-549 cells were synchronized with a double-thymidine block in the G1 phase and treated with IC90 concentration of PCH-1 for the indicated time. Slight alterations of the division cycle were visible after 2 h of incubation with the compound.\nCells were seeded onto tissue culture plates and allowed to attach for 24 h. Unsynchronized cells were treated with PCH-1 or Etoposide at IC90 concentration for 24 and 48 h, while synchronized cells were treated with PCH-1 or Etoposide at IC90 concentration for 2, 4, 6, 8, and 10 h. Synchronization of the cells was performed as described previously by Chen et al.[77]. Next, the cells were trypsinized, fixed in ice-cold 75% ethanol, and stored overnight at − 20 °C. After centrifugation, the cells were rinsed with PBS and stained with […] PI (Sigma-Aldrich) and […] RNaseA (Thermo Fisher) in PBS for 30 min at RT. The distribution of the cells in different phases of the cell cycle was determined by flow cytometry (Guava EasyCyte 8 cell sorter, Merck Millipore) and FlowJo software v10. Each experiment was repeated independently three times."}, "[5]": {"test_system": "A-549, H226, and H460 cells", "test": "Colony formation assay", "settings": "1, 5, 10 µM for 24 h, then 9 days culture", "description": "Cells were seeded onto 6-well plates (500 cells/well) and allowed to attach for 24 h in a fresh RPMI medium. Next, the cells were pretreated with DMSO (1%) solution of the examined compound (at the concentrations of 1, 5, and 10 µM) for 24 h. The medium containing compound was then changed, and the cells were cultured for additional 9 days. After incubation, the cells were washed twice with phosphate-buffered saline (PBS), fixed with 100% methanol for 30 min, and stained with 0.5% crystal violet for 15 min. The colonies were photographed and counted by ImageJ software."}},
  "note": "Like-named read-outs stand apart in the source and are kept apart here.",
  "data": [
    {"molecule": "COc1ccc(C2CC(c3cc4c(cc3OC)OCO4)=NN2C(C)=O)cc1", "note": "(centres unmarked) [PCH-1, 1-[3-(6-methoxy-2H-1,3-benzodioxol-5-yl)-5-(4-methoxyphenyl)-4,5-dihydro-1H-pyrazol-1-yl]ethan-1-one]", "values": [
      {"measurement": "TGF-β1-induced cell motility (wound closure)", "setting": "A-549 cells [1]; A-549 + 2.5 ng/ml TGF-β1, 5 µM and 10 µM, 20 h", "value": "the wound remained opened"},
      {"measurement": "cell migration (wound closure)", "setting": "A-549 cells [1]; A-549, 10 and 15 µM", "value": "significantly reduced the migration of the cells"},
      {"measurement": "increase of ROS towards vehicle control", "setting": "A-549 cells [2]; A-549, IC90, 3 h", "value": 15, "unit": "%"},
      {"measurement": "increase of ROS towards vehicle control", "setting": "A-549 cells [2]; A-549, IC90, 6 h", "value": 56.9, "unit": "%"},
      {"measurement": "increase of ROS towards vehicle control", "setting": "A-549 cells [2]; A-549, IC90, 24 h", "value": 68.1, "unit": "%"},
      {"measurement": "superior activity to the reference compound Cisplatin, A-549", "setting": "A-549 cells [3]; 72 h IC50 ratio", "value": "approximately 6.7 fold"},
      {"measurement": "IC50", "setting": "A-549 cells [3]; 72 h, MTT, read-out: IC50 ± SD, growth inhibition, A-549", "value": "4.32 ± 0.28", "unit": "µM"},
      {"measurement": "IC50", "setting": "A-549 cells [3]; A-549, 24 h, read-out: IC50 after 24 h of treatment", "value": "41.3 ± 0.75", "unit": "µM"},
      {"measurement": "IC50", "setting": "A-549 cells [3]; A-549, 48 h, read-out: IC50 after 48 h of treatment", "value": "25.6 ± 0.97", "unit": "µM"},
      {"measurement": "cell cycle arrest", "setting": "[4]", "value": "induced cell cycle arrest in the G2/M phase"},
      {"measurement": "number of colonies", "setting": "[5]", "value": "reduced the number of colonies in all the tested cell lines in a dose-dependent manner"}
    ]}
  ]
}
